Experimental findings from patent US11602534B2, “Pyrimidine derivative kinase inhibitors” (HEFEI INSTITUTES OF PHYSICAL SCIENCE, CHINESE ACADEMY OF …, priority 2017, dated 2023) are described below.

Test [1] concerns BaF3. The test is described as follows: Proliferation of BaF3 cells, CCK8 cell viability assay. In kind it is cell-based. The note with it: Mus musculus, 72 hours. The text has this:
(§1) In this example the following cells were used: […] (purchased from ATCC), mouse P210-BaF3 (stably expressing BCR-ABL mutant activated kinase), mouse P210/T315I-BaF3 (stably expressing BCR-ABL/T315I mutant activated kinase), mouse FLT3-ITD-BaF3 (stably expressing FLT3/ITD mutant activated kinase), mouse TEL-FLT3-BaF3 (stably expressing FLT3 kinase), mouse TEL-cKIT-BaF3 (stably expressing cKIT kinase), mouse BaF3-tel/T670I-cKit (stably expressing cKIT/T670I mutant activated kinase), mouse Tel-VEGFR2-BaF3 (stably expressing VEGFR2 kinase), mouse Tel-PDGFRα-BaF3 (stably expressing PDGFRα kinase), mouse Tel-PDGFRβ-BaF3 (stably expressing PDGFRβ kinase), mouse Tel-RET-BaF3 (stably expressing RET kinase). The above cell lines were all constructed by our laboratory according to the following method: the kinase region sequences of human P210, P210/T315I, FLT3/ITD, FLT3, cKIT, cKIT/T670I, VEGFR2, PDGFRα, PDGFRβ, RET were respectively amplified by PCR, and inserted into MSCV-Puro vectors having N-terminal TEL or TPR fragments (Clontech). The vectors were stably transfected into mouse BaF3 cells by means of retrovirus, and the growth factor IL-3 were removed, eventually obtaining cell lines that depend on transferred protein P210, P210/T315I, FLT3/ITD, FLT3, cKIT, cKIT/T670I, VEGFR2, PDGFRα, PDGFRβ, or RET.
(§2) GI50 (unit: μM) was calculated by quantifying the number of living cells based on quantitative measurement of reductive dehydrogenase in living cells with CCK8 cell viability assay kit (Bestbio, China).

In test [2] the test system is Tel-cKit-BaF3. Nature of the test: Proliferation of Tel-cKit-BaF3 cells, CCK8 cell viability assay. The class given is cell-based, mouse. The note with it: Mus musculus; 72 hours, CCK8; stably expressing cKIT kinase.
Source text: as §1, §2
In general terms: Tetrazolium assays rely on reduction of a dye to a coloured formazan, in cell work by metabolically active cells.

Test [3] relates to Tel-cKit/T670I-BaF3. The test is described as follows: Proliferation of Tel-cKit/T670I-BaF3 cells, CCK8 cell viability assay. The class given is cell-based. The note with it: Mus musculus, 72 hours, stably expressing cKIT/T670I.
Source text: as §1, §2

Test [4] deals with Tel-FLT3-BaF3. The test is described as follows: Proliferation of Tel-FLT3-BaF3 cells, CCK8 cell viability assay. The class given is cell-based. The following applies: Mus musculus, 72 hours, stably expressing FLT3 kinase.
Source text: as §1, §2

Test [5] concerns FLT3-ITD-BaF3. The test is described as follows: Proliferation of FLT3-ITD-BaF3 cells, CCK8 cell viability assay. In kind it is cell-based. The note with it: Mus musculus, 72 hours, stably expressing FLT3/ITD.
Source text: as §1, §2

Test [6] has as its system TEL-PDGFRα-BaF3. Nature of the test: Proliferation of TEL-PDGFRα-BaF3 cells, CCK8 cell viability assay. The class given is cell-based. The note with it: Mus musculus, 72 hours, stably expressing PDGFRα kinase.
Source text: as §1, §2

Test [7] deals with TEL-PDGFRβ-BaF3. Nature of the test: Proliferation of TEL-PDGFRβ-BaF3 cells, CCK8 cell viability assay. The note with it: Mus musculus, 72 hours, stably expressing PDGFRβ kinase. In kind it is cell-based.
Source text: as §1, §2

For test [8], the system named is TEL-VEGFR2-BaF3. Nature of the test: Proliferation of TEL-VEGFR2-BaF3 cells, CCK8 cell viability assay. The note with it: Mus musculus, 72 hours, stably expressing VEGFR2 kinase. The class given is cell-based.
Source text: as §1, §2

For test [9], the system named is P210-BaF3. Nature of the test: Proliferation of P210-BaF3 cells, CCK8 cell viability assay. In kind it is cell-based. The note with it: Mus musculus, 72 hours, stably expressing BCR-ABL mutant activated kinase.
Source text: as §1, §2

For test [10], the system named is P210/T315I-BaF3. The test is described as follows: Proliferation of P210/T315I-BaF3 cells, CCK8 cell viability assay. In kind it is cell-based. The note with it: Mus musculus, 72 hours, stably expressing BCR-ABL/T315I.
Source text: as §1, §2

For the compound `CC(=O)Nc1cc(Oc2ccc(NC(=O)Cc3cc(Cl)ccc3C(F)(F)F)cc2)ncn1` [Example 2, N-[4-(6-acetylamino-pyrimidin-4-yloxy)-phenyl]-2-(5-chloro-2-trifluoromethyl-phenyl)-acetamide], the GI50 was above 10000 nM in [1]; 6930 nM in test [2]; above 10000 nM in [3]; 744 nM in [4]; 158 nM in [5]; 102 nM in test [6]. In addition, the GI50 in test [7] is 156 nM; in test [8] it was 2830 nM.
For the compound `CC(=O)Nc1cc(Oc2ccc(CC(=O)Nc3cccc(C(F)(F)F)c3)cc2)ncn1` [Example 33, 2-[4-(6-acetylamino-pyrimidin-4-yloxy)-phenyl]-N-(3-trifluoromethyl-phenyl)-acetamide], the concentration for 50% growth inhibition (GI50) in test [1] was above 10000 nM; in test [2], 301 nM; in [3] it was 81 nM; in test [4], 4 nM; in test [5], 10 nM; in test [6], 1 nM. The GI50 stood at 4 nM in test [7] and 13 nM in [8].
On to `CC(=O)Nc1cc(Oc2ccc(CC(=O)Nc3cccc(Cl)c3C(F)(F)F)cc2)ncn1` [Example 35, 2-[4-(6-acetylamino-pyrimidin-4-yloxy)-phenyl]-N-(3-chloro-2-trifluoromethyl-phenyl)-acetamide], for which the concentration for 50% growth inhibition (GI50) is above 10000 nM in [1]; above 10000 nM in test [9]; above 10000 nM in test [2]; 6600 nM in test [3]; 925 nM in test [4]; 67 nM in test [5]. Besides, the GI50 in [6] amounted to 203 nM; in test [7], 406 nM.
On to `CC(=O)Nc1cc(Oc2ccc(CC(=O)Nc3ccc(C(F)(F)F)cc3)cc2)ncn1` [Example 36, 2-[4-(6-acetylamino-pyrimidin-4-yloxy)-phenyl]-N-(4-trifluoromethyl-phenyl)-acetamide], for which the GI50 in test [1] is above 10000 nM; in test [2], 589 nM; in [3] it was 36 nM; in test [4] it was 17 nM; in test [5], 4 nM; in test [6] it was below 1 nM. In test [7], this compound had a GI50 of 2 nM.
Consider `CC(=O)Nc1cc(Oc2ccc(CC(=O)Nc3ccccc3)cc2)ncn1` [Example 37, 2-[4-(6-acetylamino-pyrimidin-4-yloxy)-phenyl]-N-phenyl-acetamide], for which the concentration for 50% growth inhibition (GI50) in [1] was above 10000 nM; in test [9] it was above 10000 nM; in test [2] it was above 10000 nM; in test [3], 4030 nM; in test [4], 2270 nM; in test [5], 162 nM. For the same compound, the concentration for 50% growth inhibition (GI50) was 5 nM in [6] and 4 nM in test [7].
For `CC(=O)Nc1cc(Oc2ccc(CC(=O)Nc3ccc(C)cc3C(F)(F)F)cc2)ncn1` [Example 38, 2-[4-(6-acetylamino-pyrimidin-4-yloxy)-phenyl]-N-(4-methyl-2-trifluoromethyl-phenyl)-acetamide], the 50% growth inhibitory concentration (GI50) is above 10000 nM in test [1]; above 10000 nM in [9]; above 10000 nM in [2]; 8310 nM in test [3]; 632 nM in [4]; 213 nM in test [5]. Moreover, the GI50 in [6] was 35 nM; in [7], 466 nM; in [8] it was 2850 nM.
Regarding `CC(=O)Nc1cc(Oc2ccc(CC(=O)N(C)c3ccc(Br)cc3)cc2)ncn1` [Example 39, 2-[4-(6-acetylamino-pyrimidin-4-yloxy)-phenyl]-N-(4-bromo-phenyl)-N-methyl-acetamide], the GI50 was above 10000 nM in test [1]; above 10000 nM in test [9]; 7880 nM in [2]; above 10000 nM in test [3]; 347 nM in [4]; 180 nM in test [5]. Further, the GI50 in [6] was 57 nM; in test [7] it was 134 nM; in test [8], 4260 nM.
Turning to `Cc1ccc(NC(=O)Nc2ccc(Oc3cc(N(C)CCO)ncn3)cc2)cc1C(F)(F)F` [Example 87, 1-(4-{6-[(2-hydroxy-ethyl)-methyl-amino]-pyrimidin-4-yloxy}-phenyl)-3-(4-methyl-3-trifluoromethyl-phenyl)-urea], the concentration for 50% growth inhibition (GI50) in test [1] amounted to 7210 nM; in test [10], 8490 nM; in test [2], 354 nM; in test [3], 8850 nM; in test [4] it was 169 nM; in [5], 58 nM. For the same compound, the results for the concentration for 50% growth inhibition (GI50) in test [6], in test [7] and in test [8] were 26 nM, 115 nM and 398 nM, respectively.
For `Cc1ccc(NC(=O)Nc2ccc(Oc3cc(N4CCN[C@H](C)C4)ncn3)cc2)cc1C(F)(F)F` [Example 106, (R)-1-(4-methyl-3-(trifluoromethyl)phenyl)-3-(4-((6-(3-methylpiperazin-1-yl)pyrimidin-4-yl)oxy)phenyl)urea], the 50% growth inhibitory concentration (GI50) in test [1] worked out at 8920 nM; in test [2], 1730 nM; in test [3], 990 nM; in [4], 460 nM; in [5], 300 nM; in test [6], 21 nM. Besides, the values for the GI50 in [7] and in test [8] were 136 nM and 350 nM, respectively.
Regarding `CC(=O)Nc1cc(Oc2ccc(NC(=O)Cc3ccccc3C)cc2)ncn1` [Example 161, N-[4-(6-acetylamino-pyrimidin-4-yloxy)-phenyl]-2-(2-methyl-phenyl)-acetamide], the 50% growth inhibitory concentration (GI50) was above 10000 nM in test [1]; above 10000 nM in [9]; above 10000 nM in test [10]; 7010 nM in [2]; above 10000 nM in [3]; 228 nM in test [4]. The results for the GI50 in test [5], in [6] and in test [7] were 74 nM, 24 nM and 116 nM, respectively.
As to `CC(=O)Nc1cc(Oc2ccc(NC(=O)Cc3ccc4ccccc4c3)cc2)ncn1` [Example 162, N-[4-(6-acetylamino-pyrimidin-4-yloxy)-phenyl]-2-naphth-2-yl-acetamide], the GI50 in [1] is above 10000 nM; in test [9] it was above 10000 nM; in test [10] it was above 10000 nM; in test [2], 313 nM; in [3], 915 nM; in [4], 113 nM. For the same compound, the GI50 in test [5] stood at 19 nM; in test [6], 4 nM; in test [7] it was 6 nM.
For `CC(=O)Nc1cc(Oc2ccc(NC(=O)Cc3cccc4ccccc34)cc2)ncn1` [Example 163, N-[4-(6-acetylamino-pyrimidin-4-yloxy)-phenyl]-2-naphth-1-yl-acetamide], the 50% growth inhibitory concentration (GI50) in [1] is above 10000 nM; in test [9], above 10000 nM; in [10], 9070 nM; in test [2], 924 nM; in test [3] it was 3270 nM; in test [4], 25 nM. For the same compound, the 50% growth inhibitory concentration (GI50) turned out to be 11 nM in test [5], 5 nM in [6] and 14 nM in test [7].
As for `CC(=O)Nc1cc(Nc2ccc(NC(=O)Cc3ccccc3C(F)(F)F)cc2)ncn1` [Example 164, N-[4-(6-acetylamino-pyrimidin-4-ylamino)-phenyl]-2-(2-trifluoromethyl-phenyl)-acetamide], the GI50 in test [1] was above 10000 nM; in test [9], above 10000 nM; in [10], above 10000 nM; in [2], above 10000 nM; in test [3] it was above 10000 nM; in test [4], 1410 nM. In addition, the GI50 is 444 nM in [5], 84 nM in [6] and 938 nM in test [7].
As for `CC(=O)Nc1cc(Nc2ccc(NC(=O)Cc3cccc(C(F)(F)F)c3)cc2)ncn1` [Example 165, N-[4-(6-acetylamino-pyrimidin-4-ylamino)-phenyl]-2-(3-trifluoromethyl-phenyl)-acetamide], the concentration for 50% growth inhibition (GI50) in test [1] is above 10000 nM; in [9] it was above 10000 nM; in [10] it was above 10000 nM; in test [2], 462 nM; in test [3] it was 4610 nM; in test [4], 52 nM. Moreover, the results for the GI50 in test [5], in [6] and in test [7] were 21 nM, 1 nM and 12 nM, respectively.

The GI50 is the concentration that inhibits growth by half. A low value points to more potent growth inhibition.
